Here are results for 21 molecules from article PMC9421655, “Novel Antagonist of the Type 2 Lysophosphatidic Acid Receptor (LPA2), UCM-14216, Ameliorates Spinal Cord Injury in Mice” (Journal of Medicinal Chemistry, 2022).

The Emax is the greatest response seen or fitted, relative to the assay's reference. For orientation: melting point means the temperature, or range, at which the solid turns liquid. One may read the IC50 as the concentration that inhibits the measured activity by half.

For data set [1], the target named is T1, LPA3 (Homo sapiens, UniProt Q9UBY5).
T1 sequence (Q9UBY5 1-353): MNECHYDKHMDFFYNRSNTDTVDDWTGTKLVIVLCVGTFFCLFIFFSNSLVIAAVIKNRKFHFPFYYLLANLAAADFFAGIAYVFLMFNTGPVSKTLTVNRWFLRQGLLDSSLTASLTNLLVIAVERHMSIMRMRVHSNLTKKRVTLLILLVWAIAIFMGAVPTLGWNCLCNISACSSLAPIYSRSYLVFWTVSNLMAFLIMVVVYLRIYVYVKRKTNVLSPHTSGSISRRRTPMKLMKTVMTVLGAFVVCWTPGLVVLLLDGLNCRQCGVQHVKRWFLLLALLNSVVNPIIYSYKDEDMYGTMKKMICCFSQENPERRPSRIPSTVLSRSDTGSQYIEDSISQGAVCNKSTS
Briefly: cell-based. The following applies: for Emax (%) LPA3: maximum blockade of activation induced by 10 μM LPA (18:1) at 10 μM compound, N.E. = no effect at 10 μM. The method, then: (§1) Cells stably expressing the corresponding LPA1–3 receptor were grown as described previously.[18] Changes in intracellular calcium levels were measured by using the fluorescent calcium sensitive dye Fluo-4 NW (Invitrogen). RH7777 cells or B103 cells were plated on poly-D-lysine or collagen coated, respectively, black-wall clear-bottom 96-well plates (Corning) at a density of 50 000 cells/well and cultured overnight. The culture medium was then replaced with 100 μL of Fluo-4 NW dye loading solution containing 2.5 μM of probenecid and incubated for 30 min at 37 °C followed by an additional 30 min at rt. […] Fluorescence changes were registered in a FluoStar Optima instrument (BMG Labtech) at 525 nm using an excitation wavelength of 494 nm. […] The data presented are from two to four independent experiments carried out in triplicate or quadruplicate. Dose–response curves were generated and IC50 values calculated by nonlinear regression analysis using Prism software version 5 (GraphPad Software Inc., San Diego, CA, USA).

For data set [2], the target named is T2, LPA1 (Homo sapiens, UniProt Q92633). Briefly: cell-based. The following applies: maximum blockade of activation induced by 10 μM LPA (18:1) at 10 μM compound; N.E. = no effect at 10 μM. The method, then: as §1
The target in data set [3] is T3, LPA2 (Homo sapiens, UniProt Q9HBW0).
T3 construct: expressed in transfected cells
Briefly: Ca2+ mobilization assay, agonist activity at LPA2. Format: cell-based. The following applies: 10 μM compound. The protocol: The agonist activity at LPA2 receptors was determined at 10 μM concentration for all final compounds as previously described.[18]
Figure S1. Representative snapshots showing the lack of significant agonist activity of selected compounds. (A) 1; (B) 13; (C) 54; and (D) Ki16425. (E) Graphs show the agonist activity induced […]
stably expressing LPA2 receptor were plated on collagen-coated black-wall clear-bottom 96-well plates (Corning) at a density of 50000 cells/well and cultured overnight. The culture medium was then replaced with Fluo-4 NW dye loading solution containing 2.5 µM of probenecid and incubated […]
for 30 minutes at 37 °C followed by an additional 30 minutes at rt. Fluorescence changes were registered in a FluoStar Optima instrument (BMG Labtech) at 525 nm using an excitation wavelength of 494 nm. Each well was monitored for 240 s. 20 µL of the test compound from a 6x stock solution in assay buffer were added after 120 s of starting the measurement. Ca2+ transient increase was quantified by calculating the difference between maximum and baseline values for each […]
Graphs shown are representative of two to three independent experiments.

The target in data set [4] is T3, LPA2. The data set is described as follows: Ca2+ mobilization assay, antagonist activity at LPA2. Format: cell-based. Further details: Emax: dose or concentration left out as unconfirmed. The following applies: for IC50: antagonism of 10 μM LPA, mean ± s.e.m. The method, then:
as §1
Figure S2. Dose response curves for compounds 13, 44, 53, 54, and 55. B103 cells stably expressing LPA2 receptor were incubated with different concentrations of the compound under study and […]
Curves were generated with PRISM software version 5 (GraphPad Software Inc, San Diego, CA, USA) using nonlinear regression analysis. Each data point corresponds to the mean±SEM of two to four independent experiments carried out in triplicate or quadruplicate.
(Calcium flux is commonly read through the fluorescence of an indicator in the cells.)

The target in data set [5] is T2, LPA1. Further details: expressed in transfected cells. The following applies: cited from earlier work.
In data set [6] the target is T1, LPA3. Further details: expressed in transfected cells. The note with it: cited from earlier work.

T3 sequence (Q9HBW0 whole entry, species assumed): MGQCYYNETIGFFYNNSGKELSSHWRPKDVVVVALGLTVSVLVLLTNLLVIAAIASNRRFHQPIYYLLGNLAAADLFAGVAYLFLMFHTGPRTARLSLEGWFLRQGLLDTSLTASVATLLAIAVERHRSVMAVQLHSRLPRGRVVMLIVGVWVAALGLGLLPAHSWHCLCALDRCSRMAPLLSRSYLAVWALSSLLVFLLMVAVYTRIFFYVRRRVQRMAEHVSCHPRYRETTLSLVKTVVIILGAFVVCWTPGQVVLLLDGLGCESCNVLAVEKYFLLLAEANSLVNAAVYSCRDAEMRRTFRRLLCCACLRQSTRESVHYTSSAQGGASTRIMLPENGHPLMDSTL
T2 sequence (Q92633 whole entry, species assumed): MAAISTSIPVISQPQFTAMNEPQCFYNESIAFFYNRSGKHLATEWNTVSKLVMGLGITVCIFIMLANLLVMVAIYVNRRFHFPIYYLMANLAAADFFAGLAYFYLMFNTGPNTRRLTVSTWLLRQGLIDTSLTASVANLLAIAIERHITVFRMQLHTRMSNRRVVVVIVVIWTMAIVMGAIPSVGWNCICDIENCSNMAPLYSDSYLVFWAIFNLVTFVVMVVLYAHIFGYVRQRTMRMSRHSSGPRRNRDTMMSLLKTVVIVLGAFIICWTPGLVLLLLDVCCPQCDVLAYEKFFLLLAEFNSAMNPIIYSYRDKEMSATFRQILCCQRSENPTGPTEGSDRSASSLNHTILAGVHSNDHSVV

As to `Cc1[nH]nc(-c2ccc(OCC(=O)O)cc2O)c1Oc1ccccc1Cl` [Compound 1], at LPA3 [1], the “Emax (%) LPA3” value was “N.E”. For the same molecule, the “Emax (%) LPA1” value on LPA1 [2] was “N.E.^c”. Besides, on LPA2 [3], the “agonist activity at LPA2 receptor” value was “lack and absence of significant agonist activity”. This molecule also registered an Emax at 10 µM at LPA2 [4] of 48 ± 9%.

Consider `O=C(O)COc1ccc(-c2cc[nH]n2)c(O)c1` [Compound 2, [3-Hydroxy-4-(1H-pyrazol-3-yl)phenoxy]acetic Acid], for which the melting point is 92 to 94 °C. At LPA2 [4], this molecule displayed an Emax at 10 µM of 7 ± 3%.

As for `Cc1[nH]nc(-c2ccc(OCC(=O)O)cc2O)c1Oc1ccccc1` [Compound 3, [3-Hydroxy-4-(5-methyl-4-phenoxy-1H-pyrazol-3-yl)phenoxy]acetic Acid], the melting point is > 180 °C (dec.). The “Emax (%) LPA3” value on LPA3 [1] is given as “N.E”. Also, the “Emax (%) LPA1” value at LPA1 [2] was “N.E”. The molecule also had an Emax at 10 µM at LPA2 [4] of 20 ± 7%.

On to `Cc1[nH]nc(-c2ccc(OCC(=O)O)cc2O)c1Oc1cccc(Cl)c1` [Compound 10, {4-[4-(3-Chlorophenoxy)-5-methyl-1H-pyrazol-3-yl]-3-hydroxyphenoxy}acetic Acid], for which the melting point was > 240 °C (dec.). In addition, the “Emax (%) LPA3” value at LPA3 [1] is listed as “N.E”. The “Emax (%) LPA1” value at LPA1 [2] is listed as “N.E”. For the same molecule, at LPA2 [4], the Emax at 10 µM was 45 ± 8%.

With `Cc1[nH]nc(-c2ccc(OCC(=O)O)cc2O)c1Oc1ccc(Cl)cc1` [Compound 11, {4-[4-(4-Chlorophenoxy)-5-methyl-1H-pyrazol-3-yl]-3-hydroxyphenoxy}acetic Acid], the melting point was in the range of 121 to 123 °C. Besides, at LPA3 [1], the “Emax (%) LPA3” value is “N.E”. Besides, the “Emax (%) LPA1” value at LPA1 [2] is on record as “N.E”. At LPA2 [4], this molecule displayed an Emax at 10 µM of 60 ± 9%.

Turning to `Cc1[nH]nc(-c2ccc(OCC(=O)O)cc2O)c1Oc1ccc(Cl)c(Cl)c1` [Compound 12, {4-[4-(3,4-Dichlorophenoxy)-5-methyl-1H-pyrazol-3-yl]-3-hydroxyphenoxy}acetic Acid], the melting point was > 240 °C (dec.). Also, the “Emax (%) LPA3” value on LPA3 [1] was “N.E”. In addition, the “Emax (%) LPA1” value on LPA1 [2] is on record as “N.E”. Moreover, at LPA2 [4], the Emax at 10 µM worked out at 58 ± 3%.

Take `Cc1[nH]nc(-c2ccc(OCC(=O)O)cc2)c1Oc1ccc(Cl)cc1Cl` [Compound 30, 4-(2,4-Dichlorophenoxy)-3-(4-carboxymethoxyphenyl)-5-methyl-1H-pyrazole]: the melting point lay in the range of 158 to 160 °C. The molecule further registered an Emax at 10 µM at LPA2 [4] of 11%.

Regarding `Cc1[nH]nc(-c2ccc(OCCC(=O)O)cc2O)c1Oc1ccc(Cl)cc1Cl` [Compound 36, 3-{4-[4-(2,4-Dichlorophenoxy)-5-methyl-1H-pyrazol-3-yl]-3-hydroxyphenoxy}propanoic Acid], the “Emax (%) LPA3” value on LPA3 [1] is “N.E”. Also, the “Emax (%) LPA1” value on LPA1 [2] is given as “N.E”. Also, the Emax at 10 µM at LPA2 [4] worked out at 67 ± 7%.

Take `Cc1[nH]nc(-c2ccc(OCCCC(=O)O)cc2O)c1Oc1ccc(Cl)cc1Cl` [Compound 37, 4-{4-[4-(2,4-Dichlorophenoxy)-5-methyl-1H-pyrazol-3-yl]-3-hydroxyphenoxy}butanoic Acid]: the “Emax (%) LPA3” value on LPA3 [1] is reported as “N.E”. In addition, at LPA1 [2], the “Emax (%) LPA1” value is given as “N.E”. This molecule also registered an Emax at 10 µM at LPA2 [4] of 43 ± 12%.

On to `Cc1[nH]nc(-c2ccc(OCCCCC(=O)O)cc2O)c1Oc1ccc(Cl)cc1Cl` [Compound 38, 5-{4-[4-(2,4-Dichlorophenoxy)-5-methyl-1H-pyrazol-3-yl]-3-hydroxyphenoxy}pentanoic Acid], for which the “Emax (%) LPA3” value at LPA3 [1] is reported as “N.E”. On LPA1 [2], the “Emax (%) LPA1” value is reported as “N.E”. In addition, on LPA2 [4], the Emax at 10 µM was found to be 21 ± 8%.

With `Cc1[nH]nc(-c2ccc(O)cc2O)c1Oc1ccc(Cl)cc1Cl` [Compound 42, 4-[4-(2,4-Dichlorophenoxy)-5-methyl-1H-pyrazol-3-yl]benzene-1,3-diol], the melting point lay in the range of 206 to 208 °C. Also, the “Emax (%) LPA3” value on LPA3 [1] is reported as “N.E”. The “Emax (%) LPA1” value on LPA1 [2] is “N.E”. The molecule also showed an Emax at 10 µM on LPA2 [4] of 16 ± 7%.

Take `COc1ccc(-c2n[nH]c(C)c2Oc2ccc(Cl)cc2Cl)c(O)c1` [Compound 43, 2-[4-(2,4-Dichlorophenoxy)-5-methyl-1H-pyrazol-3-yl]-5-methoxyphenol]: the melting point lay in the range of 220 to 222 °C. In addition, the “Emax (%) LPA3” value on LPA3 [1] is on record as “N.E”. At LPA1 [2], the “Emax (%) LPA1” value is “N.E”. On LPA2 [4], this molecule registered an Emax at 10 µM of 9 ± 5%.

Turning to `COC(=O)COc1ccc(-c2n[nH]c(C)c2Oc2ccc(Cl)cc2Cl)c(O)c1` [Compound 44, Methyl {4-[4-(2,4-dichlorophenoxy)-5-methyl-1H-pyrazol-3-yl]-3-hydroxyphenoxy} Acetate], the melting point was > 210 °C (dec.). Moreover, the “Emax (%) LPA3” value on LPA3 [1] was “N.E”. For the same molecule, on LPA1 [2], the “Emax (%) LPA1” value is listed as “N.E”. On LPA2 [4], this molecule had an Emax at 10 µM of 74 ± 7% and an IC50 of 11.6 µM.

Turning to `Cc1[nH]nc(-c2ccc(OCC(N)=O)cc2O)c1Oc1ccc(Cl)cc1Cl` [Compound 45, 2-{4-[4-(2,4-Dichlorophenoxy)-5-methyl-1H-pyrazol-3-yl]-3-hydroxyphenoxy}acetamide], the “Emax (%) LPA3” value on LPA3 [1] was “N.E”. Moreover, the “Emax (%) LPA1” value on LPA1 [2] is on record as “N.E”. Further, at LPA2 [4], the Emax at 10 µM was determined as 44 ± 7%.

For `Cc1c(Oc2ccc(Cl)cc2Cl)c(-c2ccc(OCC(=O)O)cc2O)nn1C` [Compound 47, {4-[4-(2,4-Dichlorophenoxy)-1,5-dimethyl-1H-pyrazol-3-yl]-3-hydroxyphenoxy}acetic Acid], at LPA3 [1] (read-out: Emax (%) LPA3), the Emax turned out to be 47 ± 7%. Also, the “Emax (%) LPA1” value at LPA1 [2] was “N.E”. At LPA2 [4], the Emax at 10 µM was 73 ± 10%.

Turning to `O=C(O)COc1ccc(-c2n[nH]cc2Oc2ccc(Cl)cc2Cl)c(O)c1` [Compound 48, {4-[4-(2,4-Dichlorophenoxy)-1H-pyrazol-3-yl]-3-hydroxyphenoxy}acetic Acid], the “Emax (%) LPA3” value on LPA3 [1] was “N.E”. Also, the “Emax (%) LPA1” value on LPA1 [2] is given as “N.E”. On LPA2 [4], this molecule returned an Emax at 10 µM of 35 ± 8%.

In the case of `Cc1[nH]nc(-c2ccc(OCC(=O)O)cc2O)c1Oc1ccc(F)cc1F` [Compound 53, {4-[4-(2,4-Difluorophenoxy)-5-methyl-1H-pyrazol-3-yl]-3-hydroxyphenoxy}acetic Acid], the melting point is > 210 °C (dec.). Also, the “Emax (%) LPA3” value on LPA3 [1] was “N.E”. Further, the “Emax (%) LPA1” value at LPA1 [2] was “N.E”. For the same molecule, at LPA2 [4], the Emax was found to be 65 ± 11% and the IC50 was 5.1 µM.

Regarding `Cc1[nH]nc(-c2ccc(OCc3nnn[nH]3)cc2O)c1Oc1ccc(F)cc1F` [Compound 55], the melting point was > 210 °C (dec.). The “Emax (%) LPA3” value on LPA3 [1] is “N.E”. The “Emax (%) LPA1” value on LPA1 [2] is listed as “N.E”. In addition, the Emax on LPA2 [4] is 77 ± 5%.

In the case of `Cc1csc2c(N[C@@H](C)CN3CCN(S(=O)(=O)c4ccc(Cl)c(Cl)c4)CC3)ncnc12` [Compound C35], the IC50 on LPA1 [5] and at LPA3 [6] was greater than 50 µM throughout.

In the case of `O=C(O)/C=C/C(=O)Nc1ccc(Oc2cccc(Oc3ccc(NC(=O)/C=C/C(=O)O)cc3)c2)cc1` [Compound H2L5186303], the 50% inhibitory concentration (IC50) on LPA1 [5] is 1.23 µM; on LPA3 [6], 27.3 µM.

“{4-[4-(2,4-Dichlorophenoxy)-3-methyl-1,2-oxazol-3-yl]-3-hydroxyphenoxy}acetic Acid [Compound 49]”: the “Emax (%) LPA3” value at LPA3 [1] was 71 ± 4%. The “Emax (%) LPA1” value on LPA1 [2] is given as “N.E”. For the same molecule, the “Emax (%) LPA2” value at LPA2 [4] (maximum blockade of activation induced by 10 μM LPA (18:1) at 10 μM compound) was 58 ± 3%.
